The text below walks through data of publication PMC6661771, “Indole hybridized diazenyl derivatives: synthesis, antimicrobial activity, cytotoxicity evaluation and docking studies” (BMC Chemistry, 2019).

Structures are written as SMILES. In brackets after ≈: the same amount, converted by molar mass.

Data set [1] has as its system A. niger. Put plainly: MIC by tube dilution method. The format is cell-based. Conditions: Aspergillus niger, 168 h, 7 days at 25 °C, read-out: MIC.
Data set [2] relates to A. niger. Put plainly: Minimum fungicidal concentration (MFC). Conditions: Aspergillus niger, read-out: MBC/MFC. It counts as cell-based.
The next data set concerns HCT 116. Put plainly: MTT cell proliferation assay. The format is cell-based. Conditions: Homo sapiens, HCT-116, 48 h, HCT 116 colon cancer, 48 h of drug treatment. As to the method: (§1) The cell lines used in study were initially procured from the National Centre for Cell Sciences (NCCS), Pune, India, and maintained in DMEM. The cell line was cultured in 25 cm^2 tissue culture flask with DMEM supplemented with 10% FBS, sodium bicarbonate, L-glutamine, and antibiotic solution containing: streptomycin (100 μg/ml), penicillin (100 U/ml). Cultured cell line was kept at 37 °C in a humidified 5% CO2 incubator (VWR, USA).
(§2) The compounds found to have good antimicrobial potential were then screened for their cytotoxicity using MTT […]) assay. 1 × 10^4 cells/well were seeded in 100 µl DMEM/MEM, supplemented with 10% FBS in each well of 96-well microculture plates and incubated for 24 h at 37 °C in a CO2 incubator. After incubation, all the prepared/synthesized compounds were added to the cells at 10, 25, 50 and 100 µg concentrations for 48 h. After 48 h of drug treatment, 10 µl MTT (5 mg/ml) was added to each well and the plates were further incubated for 4 h. Then the supernatant from each well was carefully removed, formazan crystals were dissolved in 100 µl of DMSO and absorbance at 570 nm wavelength was recorded on an ELISA reader. The IC50 value was calculated using the linear regression equation i.e. Y = Mx + C. Here, Y = 50, M and C values were derived from the viability graph. The assay was performed in triplicate.
(In general: Tetrazolium dyes change colour on reduction, which living cells bring about.)

The subject of another data set is MDA MB 231. Kind of data set: MTT cell proliferation assay. It counts as cell-based. Conditions: Homo sapiens, MDA-MB-231, 48 h, MDA MB 231 breast cancer, 48 h of drug treatment, read-out: IC50. As to the method:
as §1, §2

A further data set deals with K562. Put plainly: MTT cell proliferation assay. Conditions: Homo sapiens, K562 leukemia, 48 h of drug treatment. The format is cell-based. As to the method: as §1, §2
The subject of data set [3] is S. enterica. Kind of data set: MIC by tube dilution method. It counts as cell-based. Conditions: Salmonella enterica, 24 h, 24 h at 37 °C, read-out: MIC.
The subject of another data set is HEK-293. Kind of data set: MTT cell proliferation assay, normal cells. The format is cell-based. Conditions: Homo sapiens, HEK293, HEK-293 normal cells, 48 h of drug treatment. As for the experimental part: as §1, §2
For data set [4], the system named is S. aureus. Kind of data set: Minimum bactericidal concentration (MBC). The format is cell-based. The conditions noted are these: Staphylococcus aureus.
Data set [5] deals with K. pneumonia. Put plainly: Minimum bactericidal concentration (MBC). It counts as cell-based. The conditions noted are these: Klebsiella pneumoniae.
For data set [6], the system named is E. coli. Kind of data set: MIC by tube dilution method. The format is cell-based. The conditions noted are these: Escherichia coli, 24 h, 24 h at 37 °C, read-out: MIC.
Data set [7] has as its system A. fumigatus. Put plainly: Minimum fungicidal concentration (MFC). The format is cell-based. Conditions: Aspergillus fumigatus, read-out: MBC/MFC.
The subject of data set [8] is S. aureus. Put plainly: MIC by tube dilution method. It counts as cell-based. The conditions noted are these: Staphylococcus aureus, 24 h at 37 °C, read-out: MIC.
The test system of data set [9] is E. coli. Put plainly: Minimum bactericidal concentration (MBC). The format is cell-based. Conditions: Escherichia coli.
Data set [10] has as its system K. pneumonia. Put plainly: MIC by tube dilution method. It counts as cell-based. The conditions noted are these: Klebsiella pneumoniae, 24 h, 24 h at 37 °C, read-out: MIC.
Data set [11] concerns B. subtilis. Kind of data set: MIC by tube dilution method. The format is cell-based. Conditions: Bacillus subtilis, 24 h at 37 °C, read-out: MIC.
Data set [12] concerns A. fumigatus. Put plainly: MIC by tube dilution method. Conditions: Aspergillus fumigatus, 168 h, 7 days at 25 °C, read-out: MIC. The format is cell-based.
The test system of data set [13] is S. enterica. Put plainly: Minimum bactericidal concentration (MBC). It counts as cell-based. The conditions noted are these: Salmonella enterica; S. enterica; MBC; read-out: MBC/MFC. As to the method: After MIC assessment, the indole derivatives (DS1–DS21), were additionally evaluated for MBC and MFC values. […] The 10–15 ml of nutrient agar and Sabouraud dextrose agar was added to the petri plates for bacterial and fungal samples respectively with gentle shaking of plates in order to mix the culture throughout the media. Allowed the media to solidify. The petri plates were then incubated for the predefined time and temperature as referenced already for bacterial and fungal cultures respectively. The plates were then investigated visually for the development of microbial growth. The MBC and MFC were stated as the minimum concentration of the compounds in aliquots showing no visual growth after incubation.

The test system of data set [14] is B. subtilis. Kind of data set: Minimum bactericidal concentration (MBC). The format is cell-based. Conditions: Bacillus subtilis.

What is called MIC is the smallest concentration in the dilution series that meets the test's criterion for growth inhibition. For orientation: IC50 means the midpoint of a concentration-inhibition curve. As a reminder, the melting point is the temperature, or range, at which the solid turns liquid. `C/C(=N/c1nnc(-c2ccc([N+](=O)[O-])cc2Cl)s1)c1ccc(/N=N\c2c[nH]c3ccc([N+](=O)[O-])cc23)cc1` [DS-3, (Z)-5-(2-Chloro-4-nitrophenyl)-N-(1-(4-((Z)-(5-nitro-1H-indol-3-yl)diazenyl)phenyl)ethylidene)-1,3,4-thiadiazol-2-amine] displayed a melting point of 155 to 160 °C. The MIC in the data set on A. niger [1] turned out to be 62.5 µg/mL (≈ 114 µM). Also, in the data set on A. niger [2], the MFC was 125 µg/mL (≈ 229 µM). Also, in the data set on HCT 116, the IC50 was 110 ± 2.55 µg/mL (≈ 201 µM). For the same molecule, in the data set with MDA MB 231, the IC50 worked out at 46 ± 1.83 µg/mL (≈ 84 µM). Further, the IC50 with K562 is 146 ± 2.11 µg/mL (≈ 267 µM). Also, in the data set with S. enterica [3], the MIC was determined as 31.2 µg/mL (≈ 57.1 µM). Further, in the data set on HEK-293, the IC50 came out at 311.2 ± 1.76 µg/mL (≈ 569 µM). The same molecule came in with an MBC against S. aureus [4] of 62.5 µg/mL (≈ 114 µM). This molecule also displayed an MBC with K. pneumonia [5] of 31.2 µg/mL (≈ 57.1 µM). In addition, the minimal inhibitory concentration (MIC) with E. coli [6] worked out at 3.9 µg/mL (≈ 7.13 µM). The MFC in the data set on A. fumigatus [7] turned out to be 62.5 µg/mL (≈ 114 µM). In the data set on S. aureus [8], the MIC is 62.5 µg/mL (≈ 114 µM). For the same molecule, the MBC with E. coli [9] came out at 31.2 µg/mL (≈ 57.1 µM). Further, the minimal inhibitory concentration (MIC) in the data set with K. pneumonia [10] came to 1.95 µg/mL (≈ 3.57 µM). For the same molecule, in the data set on B. subtilis [11], the MIC was found to be 31.2 µg/mL (≈ 57.1 µM). The MIC in the data set with A. fumigatus [12] came out at 15.6 µg/mL (≈ 28.6 µM). Besides, in the data set on S. enterica [13], the MBC was found to be 31.2 µg/mL (≈ 57.1 µM). Further, the MBC against B. subtilis [14] was 62.5 µg/mL (≈ 114 µM).

`C/C(=N/c1cc(Cl)ccc1Cl)c1ccc(/N=N\c2c[nH]c3ccc([N+](=O)[O-])cc23)cc1` [DS-10, (Z)-2,5-Dichloro-N-(1-(4-((Z)-(5-nitro-1H-indol-3-yl)diazenyl)phenyl)ethylidene)aniline]: the melting point was 210 to 215 °C. Moreover, the MIC in the data set on A. niger [1] came out at 62.5 µg/mL (≈ 138 µM). Further, the MFC with A. niger [2] amounted to 125 µg/mL (≈ 276 µM). In the data set with HCT 116, this molecule registered an IC50 of 204.9 ± 1.62 µg/mL (≈ 453 µM). Further, the half-maximal inhibitory concentration (IC50) in the data set with MDA MB 231 came out at 130 ± 3.51 µg/mL (≈ 287 µM). In the data set with K562, this molecule came in with a half-inhibitory concentration (IC50) of 199 ± 3.13 µg/mL (≈ 439 µM). Also, the MIC in the data set on S. enterica [3] is 31.2 µg/mL (≈ 69.1 µM). In addition, the 50% inhibitory concentration (IC50) with HEK-293 was determined as 274 ± 4.58 µg/mL (≈ 606 µM). The molecule also came in with an MBC against S. aureus [4] of 125 µg/mL (≈ 276 µM). Besides, the MIC with E. coli [6] stood at 1.95 µg/mL (≈ 4.31 µM). For the same molecule, in the data set with A. fumigatus [7], the MFC was 125 µg/mL (≈ 276 µM). For the same molecule, the MIC with S. aureus [8] came to 62.5 µg/mL (≈ 138 µM). Moreover, the MBC with E. coli [9] is 31.2 µg/mL (≈ 69.1 µM). Besides, in the data set with K. pneumonia [10], the MIC is 3.9 µg/mL (≈ 8.62 µM). The MIC with B. subtilis [11] came out at 62.5 µg/mL (≈ 138 µM). Also, in the data set on A. fumigatus [12], the MIC came out at 125 µg/mL (≈ 276 µM). Moreover, in the data set with S. enterica [13], the MBC was 62.5 µg/mL (≈ 138 µM). This molecule displayed an MBC against B. subtilis [14] of 125 µg/mL (≈ 276 µM).
